US10233184B2, “7-substituted sulfonimidoylpurinone compounds and derivatives for the treatment and prophylaxis of virus infection” (Hoffmann-La Roche Inc., priority 2016, dated 2019)
Like-named read-outs stand apart in the source and are kept apart here.

Experiments:
[1] = molecular target: T1, human TLR7 (Homo sapiens, UniProt Q9NYK1); experiment: HEK293-Blue-hTLR-7 cells assay (SEAP reporter); type: cell-based; settings: for Ratio (EC50(prodrug)/EC50(active form)): EC50 of prodrug over EC50 of corresponding active form; for EC50: HEK293-Blue-hTLR-7 cells, SEAP reporter, 20 hrs
T1 sequence (Q9NYK1 27-1049): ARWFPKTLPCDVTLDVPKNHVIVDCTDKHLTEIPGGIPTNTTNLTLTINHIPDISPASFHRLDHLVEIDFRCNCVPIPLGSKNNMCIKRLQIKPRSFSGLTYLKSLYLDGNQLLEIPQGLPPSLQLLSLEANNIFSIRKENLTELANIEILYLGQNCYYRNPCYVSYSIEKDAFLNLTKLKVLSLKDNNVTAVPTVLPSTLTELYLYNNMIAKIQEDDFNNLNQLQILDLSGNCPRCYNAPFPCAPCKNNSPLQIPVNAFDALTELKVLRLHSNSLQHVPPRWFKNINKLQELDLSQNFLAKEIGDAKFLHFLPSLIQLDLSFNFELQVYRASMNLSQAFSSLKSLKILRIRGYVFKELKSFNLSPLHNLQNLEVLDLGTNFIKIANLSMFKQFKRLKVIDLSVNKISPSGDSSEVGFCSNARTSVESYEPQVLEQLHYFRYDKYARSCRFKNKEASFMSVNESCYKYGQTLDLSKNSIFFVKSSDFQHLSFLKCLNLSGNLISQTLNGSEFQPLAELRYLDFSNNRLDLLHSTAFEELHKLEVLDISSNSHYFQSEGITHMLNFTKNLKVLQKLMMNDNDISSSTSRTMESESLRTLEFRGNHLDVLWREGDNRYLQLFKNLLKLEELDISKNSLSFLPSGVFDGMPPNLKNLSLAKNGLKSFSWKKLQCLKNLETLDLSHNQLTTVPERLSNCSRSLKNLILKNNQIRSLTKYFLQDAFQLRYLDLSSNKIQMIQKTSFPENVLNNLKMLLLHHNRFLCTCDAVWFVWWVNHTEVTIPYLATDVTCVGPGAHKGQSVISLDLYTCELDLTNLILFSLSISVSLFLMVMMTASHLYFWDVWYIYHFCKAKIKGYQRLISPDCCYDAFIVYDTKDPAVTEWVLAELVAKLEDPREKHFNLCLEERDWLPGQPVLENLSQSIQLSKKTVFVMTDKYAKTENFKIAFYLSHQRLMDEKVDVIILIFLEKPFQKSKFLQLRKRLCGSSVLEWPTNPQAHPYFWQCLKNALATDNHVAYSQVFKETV
Excerpt: HEK293-Blue-hTLR-7 Cells Assay:
A stable HEK293-Blue-hTLR-7 cell line was purchased from InvivoGen (Cat.#: hkb-htlr7, San Diego, Calif., USA). These cells were designed for studying the stimulation of human TLR7 by monitoring the activation of NF-κB. A SEAP (secreted embryonic alkaline phosphatase) reporter gene was placed under the control of the IFN-β minimal promoter fused to five NF-κB and AP-1-binding sites. The SEAP was induced by activating NF-κB and AP-1 via stimulating HEK-Blue hTLR7 cells with TLR7 ligands. Therefore the reporter expression was regulated by the NF-κB promoter upon stimulation of human TLR7 for 20 hrs. The cell culture supernatant SEAP reporter activity was determined using QUANTI-Blue™ kit (Cat.#: rep-qbl, Invivogen, San Diego, Calif., USA) at a wavelength of 640 nm, a detection medium that turns purple or blue in the presence of alkaline phosphatase.
HEK293-Blue-hTLR7 cells were incubated at a density of 250,000˜450,000 cells/mL in a volume of 180 μL in a 96-well plate in Dulbecco's Modified Eagle's medium (DMEM) containing 4.5 g/L glucose, 50 U/mL penicillin, […], […], 2 mM L-glutamine, 10% (V/V) heat-inactivated fetal bovine serum for 24 hrs. Then the HEK293-Blue-hTLR-7 cells were incubated with addition of 20 μL test compound in a serial dilution in the presence of final DMSO at 1% and perform incubation under 37° C. in a CO2 incubator for 20 hrs. Then 20 μL of the supernatant from each well was incubated with 180 μL Quanti-blue substrate solution at 37° C. for 2 hrs and the absorbance was read at 620˜655 nm using a spectrophotometer. The signalling pathway that TLR7 activation leads to downstream NF-κB activation has been widely accepted, and therefore similar reporter assay was also widely used for evaluating TLR7 agonist (Tsuneyasu Kaisho and Takashi Tanaka, Trends in Immunology, Volume 29, Issue 7, July 2008, […]; Hiroaki Hemmi et al, Nature Immunology 3, 196-200 (2002)).
The Compounds and Examples of the present invention were tested in HEK293-hTLR-7 assay for their TLR7 agonism activity as described herein and results are listed in Table 1. […] The calculated ratio of EC50(prodrug)/EC50(active form) were within the range from 32 to about 7600.

[2] = Single dose PK study in male Wister-Han rats; type: in vivo; settings: male, Wister-Han, rat, plasma, po, 5 mg/kg, 5 mg/kg oral dosing of active form
Procedure: The single dose PK in Male Wister-Han Rats was performed to assess pharmacokinetic properties of tested compounds. Two groups of animals were dosed via Gavage (POE) of the respective compound. […] Blood samples were placed into tubes containing EDTA-K2 anticoagulant and centrifuged at 5000 rpm for 6 min at 4° C. to separate plasma from the samples. After centrifugation, the resulting plasma was transferred to clean tubes for bioanalysis of both prodrug and active form on LC/MS/MS. In the groups that prodrug were dosed, the concentration of prodrugs in the plasma samples was under the detection limit. The “tested compound” in Table 8 was used as the internal standard for testing the metabolite (active form) of “dose compound” in vivo. The pharmacokinetic parameters were calculated using non-compartmental module of WinNonlin® Professional 6.2. The peak concentration (Cmax) was recorded directly from experimental observations. The area under the plasma concentration-time curve (AUC0-t) was calculated using the linear trapezoidal rule up to the last detectable concentration. Cmax and AUC0-last are two critical PK parameters related to the in vivo efficacy of the tested compound. Compounds with higher Cmax and AUC0-last will lead to the better in vivo efficacy.

[3] = prodrug, read-out: HEK293-hTLR-7 EC50 (Prodrug)
[4] = active form, read-out: HEK293-hTLR-7 EC50 (Active form)

Row | SMILES | Ratio (EC50(prodrug)/EC50(active form)) [1] | EC50 [1, 3] | EC50 [1, 4] | also measured
1 | CCCS(=N)(=O)c1nc(N)c2[nH]c(=O)n(Cc3ccccc3)c2n1 (single isomer, unassigned) [Compound 1e-B] | – | – | 0.086 µM | –
2 | CCS(=O)(=O)c1nc(N)c2[nH]c(=O)n(Cc3ccc(C)cc3)c2n1 [Example S-3, reference compound] | – | – | – | AUC(0-t) [2]: 0.095 µM·h; Cmax [2]: 11.5 nM; concentration at 0.25 h ([2]; 0.25 h): 8.89 nM; concentration at 0.5 h ([2]; 0.5 h): 9.99 nM; concentration at 1 h ([2]; 1 h): 10.2 nM; concentration at 2 h ([2]; 2 h): 8.4 nM; concentration at 4 h ([2]; 4 h): 11.5 nM; concentration at 8 h ([2]; 8 h): 8.17 nM
3 | CCCCN(C)C(=O)n1c(=O)n(Cc2ccc(Cl)cc2)c2nc([S@@](=N)(=O)CCC)nc(N)c21 [Example 34-A, 6-Amino-N-butyl-9-[(4-chlorophenyl)methyl]-N-methyl-8-oxo-2-[S(S)-propylsulfonimidoyl]purine-7-carboxamide] | 428.6 | 6 µM | – | –
4 | CCS(=N)(=O)c1nc(N)c2[nH]c(=O)n(Cc3ccc(Cl)cc3)c2n1 (stereo not drawn) [Compound 41c, 6-amino-9-[(4-chlorophenyl)methyl]-2-(ethylsulfonimidoyl)-7H-purin-8-one] | – | – | 0.053 µM | –
5 | CCC[S@](=N)(=O)c1nc(N)c2[nH]c(=O)n(Cc3ccc(Cl)cc3)c2n1 (single isomer, unassigned) [Compound 34e-B] | – | – | 0.011 µM | –
6 | CCCS(=N)(=O)c1nc(N)c2[nH]c(=O)n(Cc3ccc(C)cc3)c2n1 (single isomer, unassigned) [Compound 36g-A] | – | – | 0.019 µM | –
7 | CCCCN(C)C(=O)n1c(=O)n(Cc2ccc(Cl)cc2)c2nc([S@@](=N)(=O)CCC)nc(N)c21 [Example 34-B, 6-amino-N-butyl-9-[(4-chlorophenyl)methyl]-N-methyl-8-oxo-2-[S(S)-propylsulfonimidoyl]purine-7-carboxamide] | 578.2 | 6.36 µM | – | –
8 | CCCS(=N)(=O)c1nc(N)c2[nH]c(=O)n(Cc3ccc(C)cc3)c2n1 (single isomer, unassigned) [Compound 36g-B] | – | – | 0.022 µM | –
9 | CCC[S@](=N)(=O)c1nc(N)c2[nH]c(=O)n(Cc3ccc(Cl)cc3)c2n1 (single isomer, unassigned) [Compound 34e-A] | – | – | 0.014 µM | –
10 | CCCS(=N)(=O)c1nc(N)c2[nH]c(=O)n(Cc3ccccc3)c2n1 (stereo not drawn) [Compound 1e, 6-amino-9-benzyl-2-(propylsulfonimidoyl)-7H-purin-8-one] | – | – | 0.065 µM | –

More lines, main results first:

Row | Ratio (EC50(prodrug)/EC50(active form)) [1] | EC50 [1, 3] | SMILES | EC50 [1, 4] | also measured
11 | 679.2 | 36 µM | CCCN(C)C(=O)n1c(=O)n(Cc2ccc(Cl)cc2)c2nc(S(=N)(=O)CC)nc(N)c21 (stereo not drawn) [Example 41] | – | –
12 | 159.3 | 4.3 µM | CCCS(=N)(=O)c1nc(N)c2c(n1)n(Cc1ccc(C)cc1)c(=O)n2C(=O)N(C)CC (stereo not drawn) [Example 39, 6-Amino-N-ethyl-N-methyl-8-oxo-2-(propylsulfonimidoyl)-9-(p-tolylmethyl)purine-7-carboxamide] | – | –
13 | 1868.6 | 65.4 µM | CCN(C)C(=O)n1c(=O)n(Cc2ccc(C)cc2)c2nc([S@@](=N)(=O)CC)nc(N)c21 [Example 44-A, 6-Amino-N-ethyl-2[S(S)-ethylsulfonimidoyl]-N-methyl-8-oxo-9-(p-tolylmethyl)purine-7-carboxamide] | – | –
14 | 1955.6 | 52.8 µM | CCCCN(C)C(=O)n1c(=O)n(Cc2ccc(C)cc2)c2nc(S(=N)(=O)CCC)nc(N)c21 (stereo not drawn) [Example 40, 6-Amino-N-butyl-N-methyl-8-oxo-2-(propylsulfonimidoyl)-9-(p-tolylmethyl)purine-7-carboxamide] | – | –
15 | 879.1 | 96.7 µM | CCN(C)C(=O)n1c(=O)n(Cc2ccc(C)cc2)c2nc([S@@](=N)(=O)CC)nc(N)c21 (stereo in doubt) [Example 44-B, 6-Amino-N-ethyl-2-[S(R)-ethylsulfonimidoyl]-N-methyl-8-oxo-9-(p-tolylmethyl)purine-7-carboxamide] | – | –
16 | – | 26.2 µM | CCC[S@](=N)(=O)c1nc(N)c2c(n1)n(Cc1ccc(C)cc1)c(=O)n2C(=O)N(C)CCOC [Example 38-A, 6-Amino-N-(2-methoxyethyl)-N-methyl-8-oxo-2-[S(S)-propylsulfonimidoyl]-(p-tolylmethyl)purine-7-carboxamide] | – | –
17 | 886.4 | 19.5 µM | CCC[S@](=N)(=O)c1nc(N)c2c(n1)n(Cc1ccc(C)cc1)c(=O)n2C(=O)N(C)CCOC (stereo in doubt) [Example 38-B, 6-amino-N-(2-methoxyethyl)-N-methyl-8-oxo-2-[S(R)-propylsulfonimidoyl]-9-(p-tolylmethyl)purine-7-carboxamide] | – | –
18 | 2154.5 | 47.4 µM | CCC[S@](=N)(=O)c1nc(N)c2c(n1)n(Cc1ccc(C)cc1)c(=O)n2C(=O)N1CCCC1 (stereo in doubt) [Example 37-B, 6-amino-2-[S(R)-propylsulfonimidoyl]-9-(p-tolylmethyl)-7-(pyrrolidine-1-carbonyl)purin-8-one] | – | –
19 | 1400 | 26.6 µM | CCC[S@](=N)(=O)c1nc(N)c2c(n1)n(Cc1ccc(C)cc1)c(=O)n2C(=O)N1CCCC1 [Example 37-A, 6-Amino-2-[S(S)-propylsulfonimidoyl]-9-(p-tolylmethyl)-7-(pyrrolidine-1-carbonyl)purin-8-one] | – | –
